Assay results published in patent US11099176B2 (priority 2015, dated 2021).
pKd: −log10 of the molar value. Read-outs that look alike come from different tables or passages of the source.

Experiments:
[1] = molecular target: T1, Polymorphum gilvum pgLacBP10, YP_004304976.1, SEQ ID NO: 10 (expressed form SEQ ID NO: 24) (Polymorphum gilvum, UniProt F2IY60); experiment: Lactate binding by thermal stability shift; set-up: key to appKd (lactate) / trueKd (lactate): nb: no binding
T1 sequence (F2IY60 with tags, fused parts or gaps): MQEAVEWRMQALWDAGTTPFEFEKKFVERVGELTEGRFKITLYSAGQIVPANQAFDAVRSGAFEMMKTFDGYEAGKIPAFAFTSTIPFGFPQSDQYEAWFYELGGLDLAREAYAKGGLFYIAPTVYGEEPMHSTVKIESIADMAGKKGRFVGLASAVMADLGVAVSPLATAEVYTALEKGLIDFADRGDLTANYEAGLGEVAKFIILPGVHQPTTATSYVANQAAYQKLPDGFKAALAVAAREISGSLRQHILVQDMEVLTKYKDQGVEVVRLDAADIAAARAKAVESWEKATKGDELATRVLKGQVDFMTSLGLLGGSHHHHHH
Source text: These experiments comprise four successive steps: • 1. Synthetic gene construction. The amino acid sequence of the homology leads are back translated into DNA sequences. These are optimized for directing heterologous cytoplasmic expression of the protein homologues in E. coli, using either the OrfOpt or OrfMorph programs. These programs predict mRNA sequences that direct high-level protein expression in E. coli. The predicted gene sequences are assembled de novo from synthetic oligonucleotides. • 2. Heterologous protein expression of the homologues in E. coli. Plasmids carrying the synthetic expression constructs (see above) were transformed into KRX competent cells (Promega). Protein production was induced in bacterial cultures of these cultures. • 3. Purification of successfully expressed protein using immobilized metal affinity chromatography. • 4.
The thermal stability of purified LacBP candidate proteins was determined by measuring the temperature-dependence of the fluorescence signal of an extrinsically added dye, SYPRO, using a Roche LightCycler (Layton and Hellinga, 2010, Biochemistry, 49, 10831-41). The total fluorescence intensity, S, is given by S=βFfF+βUfU 11 where fF and fU are the fractions of protein in the folded and unfolded states, respectively, and βF and βUthe fluorescence baselines of these two states. To get the fractions of the two states, we have
To obtain the temperature dependence of the binding reaction, the Kd values of all the individually determined isotherms were fit the Gibbs-Hemholtz equation (Layton and Hellinga, 2010, Biochemistry, 49, 10831-41): […]

[2] = molecular target: Marinobacter sp. msLacBP6 variant 187C, P150S, SEQ ID NO: 55, Acrylodan conjugate; experiment: Fluorescence titration of conjugate (affinity tuning); type: binding; settings: read-out: trueKd (lactate); monochromatic, 463 nm
[3] = molecular target: T2, Flexistipes sinusarabici fsLacBP13 variant W188C, SEQ ID NO: 47, Badan conjugate (Flexistipes sinusarabici, UniProt F8E724, W211C); experiment: Fluorescence titration of conjugate; type: binding
T2 construct: Badan on Cys188
T2 sequence (F8E724 entry or part of it W211C): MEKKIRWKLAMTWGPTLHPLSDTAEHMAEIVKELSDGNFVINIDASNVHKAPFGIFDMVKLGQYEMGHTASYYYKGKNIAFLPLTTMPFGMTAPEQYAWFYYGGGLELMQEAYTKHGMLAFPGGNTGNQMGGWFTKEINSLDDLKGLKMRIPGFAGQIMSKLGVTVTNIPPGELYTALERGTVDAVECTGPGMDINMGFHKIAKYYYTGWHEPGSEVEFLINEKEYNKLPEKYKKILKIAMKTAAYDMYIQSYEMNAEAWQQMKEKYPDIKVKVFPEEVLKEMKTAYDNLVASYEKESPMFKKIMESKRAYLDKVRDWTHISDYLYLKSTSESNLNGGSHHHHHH

[4] = molecular target: Marinobacter sp. msLacBP6 variant 187C, F68M, SEQ ID NO: 50, Acrylodan conjugate; experiment: Fluorescence titration of conjugate (affinity tuning); type: binding; settings: λ1 459, λ2 516 nm
[5] = molecular target: Marinobacter sp. msLacBP6 variant 187C, L70I, SEQ ID NO: 52, Badan conjugate; experiment: as above; type: binding; settings: λ1 460, λ2 537 nm
[6] = molecular target: Marinobacter sp. msLacBP6 variant 187C, P150A, SEQ ID NO: 54, Acrylodan conjugate; experiment: as above; type: binding; settings: read-out: trueKd (lactate); monochromatic, 463 nm
[7] = test system: Anaeromyxobacter dehalogenans adLacBP9 variant F191C, SEQ ID NO: 44, Acrylodan conjugate; experiment: Fluorescence titration of conjugate; type: binding; set-up: key: nb: no binding
Experimental: (§1) 12-, 24-, or 48-point logarithmic titration series were prepared on a Tecan Freedom liquid-handling robot, using an in-house program, ‘TitrationPlate’, that compiles an abstract description of a multi-component titration series into machine instructions for operating the robot. Temperature-dependent fluorescence emission intensities of 20 μL aliquots, each containing 10 μM protein, were measured in 384-well microtiter plates in a LightCycler 480 II (Roche) using excitation and emission wavelengths available for this instrument that most closely matched the optical characteristics of the fluorescent conjugate. Temperatures were advanced in 1K steps. At each temperature, data was collected at 1-second intervals for 60 seconds at which point the signal had relaxed to a steady value associated with the new temperature. […] The in-house program ‘TitrationMeltPlate’ was used to convert these observations into time-independent datasets that record fluorescence as a function of temperature for each well and associate wells with their concentration of titrant and additive. Management tools were developed to maintain a database of titrations and their analyses.
(§2) Ligand- and wavelength-dependent emission intensities were recorded on a Nanodrop3300 (Thermo Scientific) at room temperature. Using the LED closest to the optimal excitation wavelength of the fluorophore (UV, 365 nm; blue, 470 nm; ‘white’, 460-550 nm).
(§3) Monochromatic emission intensities Iλ (these intensities correspond to a bandpass intensity, recorded either with a physical filter in the case of the Roche LightCycler, or by integrating in the interval λ−δ, λ+δ in the case of an emission spectrum), were fit to Iλ=^apoβλ(1−ytrue)+^satβλytrue 1 where ^apoβλ and ^satβλ are the fluorescence baselines associated with the ligand-free and ligand-bound states of the protein, respectively, and ytrue the fractional saturation of the protein (Layton and Hellinga, 2010, Biochemistry, 49, 10831-41). Baseline functions can be constant, linear, or a second-order polynomial.

[8] = test system: Anaeromyxobacter dehalogenans adLacBP9 variant F191C, SEQ ID NO: 44, Badan conjugate; experiment: Fluorescence titration of conjugate; type: binding; set-up: key: nb: no binding
Experimental: as §1, §2, §3

[9] = molecular target: Marinobacter sp. msLacBP6 variant 187C, F68M, SEQ ID NO: 50, Badan conjugate; experiment: Fluorescence titration of conjugate (affinity tuning); type: binding; settings: λ1 464, λ2 527 nm
[10] = molecular target: T3, Marinobacter adhaerens maLacBP8 variant F189C, SEQ ID NO: 43, Acrylodan conjugate (Marinobacter adhaerens, UniProt E4PNW2, C105A/C90A/F252C); experiment: Fluorescence titration of conjugate; type: binding
T3 construct: Acrylodan on Cys189
T3 sequence (E4PNW2 entry or part of it C90A/C105A/F252C): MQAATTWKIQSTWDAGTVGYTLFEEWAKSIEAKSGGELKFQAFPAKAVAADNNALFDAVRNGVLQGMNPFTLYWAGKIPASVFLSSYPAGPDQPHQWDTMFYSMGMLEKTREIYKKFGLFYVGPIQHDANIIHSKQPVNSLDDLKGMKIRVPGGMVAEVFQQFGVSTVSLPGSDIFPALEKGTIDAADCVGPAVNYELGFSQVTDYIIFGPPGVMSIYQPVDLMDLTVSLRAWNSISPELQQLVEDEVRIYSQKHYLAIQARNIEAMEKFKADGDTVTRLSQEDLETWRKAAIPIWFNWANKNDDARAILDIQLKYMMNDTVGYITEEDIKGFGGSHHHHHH

[11] = Roche LightCycler, SYPRO Orange

In the case of `C[C@H](O)C(=O)O` [lactate], the “appKd (lactate)” value [1, 11] was “nb^f”, the “trueKd (lactate)” value [1, 11] was “nb^f” and the “Lactate Binding” value ([1]; thermostability vs ligand concentration, fluorescence response of labeled conjugate) was “weak^f,g”. The pKd [2] was 1.62, the pKd [3] was < 1.00 and the pKd ([3]; read-out: trueKd (lactate), λ1 483, λ2 466 nm) was < 1.00. The pKd ([4]; read-out: appKd (lactate)) was 3.15, the pKd ([4]; read-out: trueKd (lactate)) was 3.30 and the pKd ([5]; read-out: appKd (lactate)) was 3.52. For the same molecule, the pKd ([5]; read-out: trueKd (lactate)) was 3.70, the pKd [6] was 2.17 and the “appKd (lactate)” value [7] was “nb”. For the same molecule, the “trueKd (lactate)” value [7] was “nb”, the “appKd (lactate)” value [8] was “nb” and the “trueKd (lactate)” value [8] was “nb”. For the same molecule, the pKd ([9]; read-out: appKd (lactate)) was 3.30, the pKd ([9]; read-out: trueKd (lactate)) was 3.22 and the pKd [10] was 2.82.
